Test results: US20230285387A1, “COMBINATION OF MORPHINAN COMPOUNDS AND ANTI[…] THE TREATMENT OF PS[…], NEUROLOGICAL DISEASES, I[…] CHRONIC PAIN AND BRAIN INJURY” (Concert Pharmaceuticals, Inc., priority 2008, published 2023)
Where a name gives a salt, the structure may show the parent alone.

Assays:
Human CYP2D6 SUPERSOMES = target: T1, Human CYP2D6 SUPERSOMES (Homo sapiens, UniProt P10635); assay: Metabolic stability in CYP2D6 SUPERSOMES; format: in vitro ADME; conditions: 1 μM test compound, 2 mM NADPH, 0.1 M potassium phosphate buffer pH 7.4, 37° C., 0-30 minutes, parent remaining by LC-MS/MS
T1 construct: purchased GenTest (Woburn, Mass., USA)
T1 sequence (P10635 whole entry): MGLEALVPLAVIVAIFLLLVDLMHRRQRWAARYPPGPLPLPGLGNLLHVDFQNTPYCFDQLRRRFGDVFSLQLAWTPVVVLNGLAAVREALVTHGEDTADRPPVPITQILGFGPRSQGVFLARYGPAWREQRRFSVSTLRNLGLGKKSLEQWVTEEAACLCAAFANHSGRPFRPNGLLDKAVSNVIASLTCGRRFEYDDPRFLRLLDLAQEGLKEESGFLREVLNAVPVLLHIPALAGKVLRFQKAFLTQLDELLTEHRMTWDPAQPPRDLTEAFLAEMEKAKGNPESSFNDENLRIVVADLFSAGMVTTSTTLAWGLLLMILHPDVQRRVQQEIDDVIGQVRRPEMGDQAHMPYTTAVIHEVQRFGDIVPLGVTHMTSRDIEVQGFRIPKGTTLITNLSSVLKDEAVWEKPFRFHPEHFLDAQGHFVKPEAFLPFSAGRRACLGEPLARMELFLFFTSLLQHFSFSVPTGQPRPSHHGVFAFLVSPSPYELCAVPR
Experimental: (§1) Human CYP2D6 SUPERSOMES™ were purchased from GenTest (Woburn, Mass., USA). […] The 7.5 mM stock solutions were diluted to 50 μM in acetonitrile (ACN). The […] CYP2D6 supersomes were diluted to 62.5 μmol/mL in 0.1 M potassium phosphate buffer, pH 7.4, containing 3 mM MgCl2. The diluted SUPERSOMES™ were added to wells of a 96-well deep-well polypropylene plate in triplicate. 10 μL of the 50 μM test compound was added to the supersomes and the mixture was pre-warmed for 10 minutes. Reactions were initiated by addition of pre-warmed NADPH solution. The final reaction volume was 0.5 mL and contained 50 μmol/mL CYP2D6 SUPERSOMES™, 1 μM test compound, and 2 mM NADPH in 0.1 M potassium phosphate buffer, pH 7.4, and 3 mM MgCl2. The reaction mixtures were incubated at 37° C. and 50 μL aliquots were removed at 0, 5, 10, 20, and 30 minutes and added to shallow-well 96-well plates which contained 50 μL of ice-cold ACN with internal standard to stop the reactions. The plates were stored at 4° C. for 20 minutes after which 100 μL of water was added to the wells of the plate before centrifugation to pellet precipitated proteins. Supernatants were transferred to another 96-well plate and analyzed for amounts of parent remaining by LC-MS/MS using an Applied Bio-systems API 4000 mass spectrometer.
(§2) The in vitro half-life (t1/2) for each of the test compounds was calculated from the slopes of the linear regression of % parent remaining (ln) vs incubation time relationship: in vitro t1/2=0.693/k, where k=−[slope of linear regression of % parent remaining(ln) vs incubation time]. Data analysis was performed using Microsoft Excel Software.

CYP2D6 = target: T2, CYP2D6 (Homo sapiens, UniProt P10635); assay: Metabolic stability in CYP2D6 SUPERSOMES; format: in vitro ADME; conditions: human, recombinant human CYP2D6 SUPERSOMES; 1 μM test compound, 2 mM NADPH, 0.1 M potassium phosphate buffer pH 7.4, 37° C., 0-30 minutes, parent remaining by LC-MS/MS; read-out: t1/2 ± SD (calculated in vitro half-life in SUPERSOMES)
T2 construct: purchased GenTest (Woburn, Mass., USA)
T2 sequence (P10635 whole entry): as above
Experimental: as §1, §2

Compound	t1/2 ± SD (calculated in vitro half-life in SUPERSOMES) (Human CYP2D6 SUPERSOMES) [min]	half-life at 1 μM (CYP2D6) [min]
[2H]C([2H])([2H])N1CC[C@@]23CCCC[C@@H]2[C@@H]1Cc1ccc(OC([2H])(C([2H])([2H])[2H])C([2H])([2H])[2H])cc13 [Compound 102, (+)-3-(Isopropoxy-d7)-17-(methyl-d3)-(9α,13α,14α)-morphinan]	39.0 ± 1.9	
[2H]C([2H])([2H])Oc1ccc2c(c1)[C@]13CCCC[C@@H]1[C@H](C2)N(C([2H])([2H])[2H])CC3 [Test Compound, (+)-3-d3-methoxy-17-d3-methyl-(9α,13α,14α)-morphinan]		5.6 ± 1.5
[2H]C([2H])([2H])C([2H])(Oc1ccc2c(c1)[C@]13CCCC[C@@H]1C(C2)N(C)CC3)C([2H])([2H])[2H] (single isomer, unassigned; (+)) [Compound 106, (+)-3-(Isopropoxy-d7)-17-methyl-(9α,13α,14α)-morphinan]		36 ± 2.8
[2H]C([2H])([2H])C([2H])([2H])Oc1ccc2c(c1)[C@]13CCCC[C@@H]1C(C2)N(C)CC3 (single isomer, unassigned; (+)) [Compound 104, (+)-3-(Ethoxy-d5)-17-methyl-(9α,13α,14α)-morphinan hydrochloride]		49.1 ± 4.1
